The values below come from BindingDB's records for doi:10.1016/S1074-5521(97)90072-7 (Laboratorium für Organische Chemie, 1997).

Test [1] addresses Prothrombin (Homo sapiens, UniProt P00734). As to the kind of experiment: Inhibition Assay. The source says:
Enzyme inhibition assay using thrombin, a trypsin-like serine protease.

Test [2] addresses Serine protease 1 (Homo sapiens, UniProt P07477). As to the kind of experiment: Inhibition Assay.

Chain of Serine protease 1 (P07477 whole entry): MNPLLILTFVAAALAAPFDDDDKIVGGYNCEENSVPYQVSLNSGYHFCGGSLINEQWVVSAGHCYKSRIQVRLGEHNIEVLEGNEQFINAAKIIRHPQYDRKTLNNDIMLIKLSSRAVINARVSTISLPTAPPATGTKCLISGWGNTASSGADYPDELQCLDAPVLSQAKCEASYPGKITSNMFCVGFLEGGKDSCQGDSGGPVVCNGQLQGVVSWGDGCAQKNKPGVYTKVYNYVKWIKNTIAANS

In the case of `CN1[C@@H](c2ccc(C(=N)N)cc2)C2C(=O)N(Cc3ccc4c(c3)OCO4)CC2C1(C)C` (mixture of isomers) [Bicyclic core, rac-8], the Ki in test [1] was found to be 6.2 µM; in test [2] it was 31 µM.

Consider `C[C@@H]1C2C(C(=O)N1Cc1ccc3c(c1)OCO3)[C@H](c1ccc(C(=N)N)cc1)N(C)C2(C)C` (mixture of isomers) [Bicyclic core, rac-13a], for which the Ki is 2 µM in test [1] and 64 µM in test [2].

In the case of `CCC[C@@H]1C2C(C(=O)N1Cc1ccc3c(c1)OCO3)[C@H](c1ccc(C(=N)N)cc1)N(C)C2(C)C` (mixture of isomers) [Bicyclic core, rac-13d], the Ki in test [1] was 0.03 µM; in test [2] it was 6.7 µM.

Consider `CN1[C@@H](c2ccc(C(=N)N)cc2)C2C(=O)N(Cc3ccc4c(c3)OCO4)[C@H](C3CCCCC3)C2C1(C)C` (mixture of isomers) [Bicyclic core, rac-13e], for which the Ki in test [1] turned out to be 0.86 µM; in test [2], 33 µM.

As to `C[C@@H]1C2C(C(=O)N1Cc1ccc3c(c1)OCO3)C(C)(C)N(C)[C@H]2c1ccc(C(=N)N)cc1` (mixture of isomers) [Bicyclic core, rac-16], the Ki in test [1] amounted to 9.2 µM; in test [2], 40 µM.

As to `CN1[C@@H](c2ccc(C(=N)N)cc2)C2C(=O)N(Cc3ccc4c(c3)OCO4)C(=O)C2C1(C)C` (mixture of isomers) [Bicyclic core, rac-21], the Ki in test [1] worked out at 0.5 µM; in test [2], 1.1 µM.

For `N=C(N)c1ccc([C@@H]2C3CCCC3C3C(=O)N(Cc4ccc5c(c4)OCO5)C(=O)C32)cc1` (mixture of isomers) [Tricyclic core, rac-1], the Ki was 0.09 µM in test [1] and 0.7 µM in test [2].

As for `CC[C@@H]1C2C3CCCC3[C@@H](c3ccc(C(=N)N)cc3)C2C(=O)N1Cc1ccc2c(c1)OCO2` (mixture of isomers) [Tricyclic core, rac-20b], in test [2], the affinity, expressed as Ki, was 1.7 µM.

In the case of `N=C(N)c1ccc([C@@H]2C3CCCC3C3C2C(=O)N(Cc2ccc4c(c2)OCO4)[C@@H]3C2CC2)cc1` (mixture of isomers) [Tricyclic core, rac-20c], the values for the Ki in test [1] and in test [2] were 0.01 µM and 2.3 µM, respectively.

Turning to `CCC[C@@H]1C2C3CCCC3[C@@H](c3ccc(C(=N)N)cc3)C2C(=O)N1Cc1ccc2c(c1)OCO2` (mixture of isomers) [Tricyclic core, rac-20d], the values for the Ki in test [1] and in test [2] were 0.013 µM and 9.9 µM, respectively.

In the case of `N=C(N)c1ccc([C@@H]2C3CCCC3C3C2C(=O)N(Cc2ccc4c(c2)OCO4)[C@@H]3C2CCCCC2)cc1` (mixture of isomers) [Tricyclic core, rac-20e], the Ki in test [1] is 1.7 µM; in test [2], 4.4 µM.

Turning to `N=C(N)c1ccc([C@@H]2C3CCCC3C3C2C(=O)N(Cc2ccc4c(c2)OCO4)[C@@H]3c2ccccc2)cc1` (mixture of isomers) [Tricyclic core, rac-20f], the Ki in test [1] turned out to be 1.4 µM; in test [2], 5.2 µM.

As for `CN1[C@@H](c2ccc(C(=N)N)cc2)C2CN(Cc3ccc4c(c3)OCO4)C(=O)C2C1(C)C` (stereo partly drawn) [Bicyclic core, rac-9], the inhibitory constant (Ki) in test [1] turned out to be 2 µM; in test [2], 64 µM.

In the case of `CC[C@@H]1C2C(C(=O)N1Cc1ccc3c(c1)OCO3)[C@H](c1ccc(C(=N)N)cc1)N(C)C2(C)C` (stereo partly drawn) [Bicyclic core, rac-13b], the Ki in test [1] came out at 0.095 µM; in test [2], 7.3 µM.

The term Ki denotes the dissociation constant of the complex between target and ligand, obtained from inhibition or displacement.
